Assay results published in US5281596A, “Antibacterial drugs for fish” (Bayer Aktiengesellschaft, priority 1986, dated 1994).
Converted amounts (≈) assume the structure as drawn. Read-outs that look alike come from different tables or passages of the source.

Experiments:
Format in all cases: cell-based
Vibrio anguillarum [1] = test: In vitro antibacterial activity of Compound D against various pathogenic bacteria for fish (agar MIC, Test Example 2); details: 20 h
Protocol: (§1) In vitro antibacterial activity of Compound D against Various Pathogenic Bacteria for Fish
(§2) Each of the test strains was cultured over-night, and the resultant culture broth (containing about 10^6 cells/ml) was innoculated in Mueller-Hinton agar (DIFCO) supplied with 1.0-2.0% sodium chloride and containing the test compound at the specified concentration.

Streptococcus sp. = test: as above; details: 20 h, read-out: MIC (minimum growth-inhibition concentration)
Protocol: as §1, §2

Pasteurella piscicida [2] = test: as above; details: Photobacterium damselae, 20 h, read-out: MIC (minimum growth-inhibition concentration)
Protocol: as §1, §2

[3] = system: Pseudomonas anguilliseptica; test: as above; details: 20 h, read-out: MIC (minimum growth-inhibition concentration)
Protocol: as §1, §2

Edwardsiella tarda = test: as above; details: 20 h, read-out: MIC (minimum growth-inhibition concentration)
Protocol: as §1, §2

Aeromonas salmonicida = test: as above; details: 20 h, read-out: MIC (minimum growth-inhibition concentration)
Protocol: as §1, §2

Vibrio anguillarum [4] = test: In vitro antibacterial activity on pathogenic bacteria for fish (agar MIC, Test Example 1); details: 20 h; for MIC: Vibrio anguillarum, read-out: MIC (minimum growth-inhibition concentration); for MIC (minimum growth-inhibition concentration): Mueller-Hinton agar
Protocol: (§3) In vitro antibacterial activity on pathogenic-bacteria for fish
(§4) Each of the test strains was cultured over-night, and each culture broth (containing about 10^6 cells/ml) was innoculated in Mueller-Hinton agar (DIFCO) supplied with 1.0-2.0% sodium chloride and containing the test compound at each specified concentration.

Pasteurella piscicida [5] = test: as above; details: 20 h; for MIC (minimum growth-inhibition concentration): Mueller-Hinton agar; for MIC: Photobacterium damselae
Protocol: as §3, §4

Aeromonas hydrophila [6] = test: as above; details: 20 h; for MIC (minimum growth-inhibition concentration): Mueller-Hinton agar; for MIC: Aeromonas hydrophila
Protocol: as §3, §4

Aeromonas hydrophila [7] = test: In vitro antibacterial activity of Compound D against various pathogenic bacteria for fish (agar MIC, Test Example 2); details: 20 h, read-out: MIC (minimum growth-inhibition concentration)
Protocol: as §1, §2

[8] = 25 strains, Mueller-Hinton agar, 25-30 °C

For `CCN1CCN(c2cc3c(cc2F)c(=O)c(C(=O)O)cn3C2CC2)CC1` [Compound D, 1-cyclopropyl-6-fluoro-1,4-dihydro-4-oxo-7-(4-ethylpiperazino)-quinoline-3-carboxylic acid], which MIC (Vibrio anguillarum [1]; Ayu origin, 25 strains, Mueller-Hinton agar, 25-30 °C, read-out: MIC (minimum growth-inhibition concentration)) is on record?
Its MIC is 0.025 to 0.4 µg/mL (≈ 0.0696 to 1.11 µM).

What about the MIC (Vibrio anguillarum [1]; Yellowtail origin, 25 strains, Mueller-Hinton agar, 25-30 °C, read-out: MIC (minimum growth-inhibition concentration)) of the same compound?
Its MIC is 0.05 to 0.1 µg/mL (≈ 0.139 to 0.278 µM).

And the MIC (Streptococcus sp.; Streptococcus sp., 25 strains, Mueller-Hinton agar, 25-30 °C)?
The MIC was 0.8 µg/mL (≈ 2.23 µM).

What about the MIC (Pasteurella piscicida [2]; Pasteurella piscicida, 25 strains, Mueller-Hinton agar, 25-30 °C) of the same compound?
The MIC was 0.0125 to 0.05 µg/mL (≈ 0.0348 to 0.139 µM).

And the MIC ([3]; 18 strains, Mueller-Hinton agar, 25-30 °C)?
Its MIC is 0.0125 to 0.025 µg/mL (≈ 0.0348 to 0.0696 µM).

And the MIC (Edwardsiella tarda; [8])?
The MIC was 0.025 to 0.2 µg/mL (≈ 0.0696 to 0.556 µM).

And the MIC (Aeromonas salmonicida; [8])?
Its MIC is 0.0125 to 0.1 µg/mL (≈ 0.0348 to 0.278 µM).

What about the MIC (Vibrio anguillarum [4]; Vibrio anguillarum strain NA8340, Mueller-Hinton agar, 25-30 °C) of the same compound?
The MIC was 0.025 µg/mL (≈ 0.0696 µM).

What about the MIC (Vibrio anguillarum [4]; Vibrio anguillarum strain NA8341, Mueller-Hinton agar, 25-30 °C) of the same compound?
Its MIC is 0.025 µg/mL (≈ 0.0696 µM).

And the MIC (Vibrio anguillarum [4]; Vibrio anguillarum strain NA8346, Mueller-Hinton agar, 25-30 °C)?
Its MIC is 0.025 µg/mL (≈ 0.0696 µM).

What about the MIC (Vibrio anguillarum [4]; Vibrio anguillarum strain NA8347, Mueller-Hinton agar, 25-30 °C) of the same compound?
Its MIC is 0.025 µg/mL (≈ 0.0696 µM).

What about the MIC (Vibrio anguillarum [4]; Vibrio anguillarum strain NH8410, Mueller-Hinton agar, 25-30 °C) of the same compound?
Its MIC is 0.025 µg/mL (≈ 0.0696 µM).

What about the “MIC (minimum growth-inhibition concentration)” value (Pasteurella piscicida [5]; Pasteurella piscicida strain EH8309, 25-30 °C) of the same compound?
The value was 0.025 µg/mL (≈ 0.0696 µM).

What about the “MIC (minimum growth-inhibition concentration)” value (Pasteurella piscicida [5]; Pasteurella piscicida strain NG8319, 25-30 °C) of the same compound?
The value was 0.025 µg/mL (≈ 0.0696 µM).

And the MIC (Pasteurella piscicida [5]; Pasteurella piscicida strain EH8304, Mueller-Hinton agar, 25-30 °C, read-out: MIC (minimum growth-inhibition concentration))?
Its MIC is 0.05 µg/mL (≈ 0.139 µM).

What about the MIC (Pasteurella piscicida [5]; Pasteurella piscicida strain EH8312, Mueller-Hinton agar, 25-30 °C, read-out: MIC (minimum growth-inhibition concentration)) of the same compound?
Its MIC is 0.05 µg/mL (≈ 0.139 µM).

And the MIC (Pasteurella piscicida [5]; Pasteurella piscicida strain EH8313, Mueller-Hinton agar, 25-30 °C, read-out: MIC (minimum growth-inhibition concentration))?
The MIC was 0.05 µg/mL (≈ 0.139 µM).

And the “MIC (minimum growth-inhibition concentration)” value (Aeromonas hydrophila [6]; Aeromonas hydrophila strain C 44, 25-30 °C)?
The value was < 0.0125 µg/mL.

And the “MIC (minimum growth-inhibition concentration)” value (Aeromonas hydrophila [6]; Aeromonas hydrophila strain KA8414, 25-30 °C)?
Its value is < 0.0125 µg/mL.

What about the “MIC (minimum growth-inhibition concentration)” value (Aeromonas hydrophila [6]; Aeromonas hydrophila strain KA8416, 25-30 °C) of the same compound?
Its value is < 0.0125 µg/mL.

What about the “MIC (minimum growth-inhibition concentration)” value (Aeromonas hydrophila [6]; Aeromonas hydrophila strain M 183, 25-30 °C) of the same compound?
Its value is < 0.0125 µg/mL.

What about the MIC (Aeromonas hydrophila [6]; Aeromonas hydrophila strain KA8301, Mueller-Hinton agar, 25-30 °C, read-out: MIC (minimum growth-inhibition concentration)) of the same compound?
Its MIC is 0.025 µg/mL (≈ 0.0696 µM).

What does the source list for `CCn1cc(C(=O)O)c(=O)c2cc3c(cc21)OCO3` [Compound OA, 1-ethyl-1,4-dihydro-6,7-methylenedioxy-4-oxo-3-quinolinecarboxylic acid, reference compound]?
MIC (Vibrio anguillarum [1]; read-out: MIC (minimum growth-inhibition concentration), Vibrio anguillarum, Ayu origin, 25 strains, Mueller-Hinton agar, 25-30 °C): 0.05 to 25 µg/mL (≈ 0.191 to 95.7 µM); MIC (Vibrio anguillarum [1]; read-out: MIC (minimum growth-inhibition concentration), Vibrio anguillarum, Yellowtail origin, 25 strains, Mueller-Hinton agar, 25-30 °C): 0.025 to 0.05 µg/mL (≈ 0.0957 to 0.191 µM); MIC (Streptococcus sp.; Streptococcus): 200 to 400 µg/mL (≈ 766 to 1530 µM); MIC (Pasteurella piscicida [2]): 0.025 to 0.1 µg/mL (≈ 0.0957 to 0.383 µM); MIC [3]: 0.0125 to 0.05 µg/mL (≈ 0.0479 to 0.191 µM); MIC (Edwardsiella tarda): 0.05 to 1.6 µg/mL (≈ 0.191 to 6.12 µM); MIC (Aeromonas salmonicida): 0.05 to 3.2 µg/mL (≈ 0.191 to 12.2 µM); MIC (Aeromonas hydrophila [7]): 0.0125 to 0.025 µg/mL (≈ 0.0479 to 0.0957 µM); MIC (minimum growth-inhibition concentration) (Vibrio anguillarum [4]; Vibrio anguillarum strain NA8340, 25-30 °C): 0.05 µg/mL (≈ 0.191 µM); MIC (minimum growth-inhibition concentration) (Vibrio anguillarum [4]; Vibrio anguillarum strain NA8341, 25-30 °C): 0.05 µg/mL (≈ 0.191 µM); MIC (minimum growth-inhibition concentration) (Vibrio anguillarum [4]; Vibrio anguillarum strain NA8346, 25-30 °C): 0.05 µg/mL (≈ 0.191 µM); MIC (minimum growth-inhibition concentration) (Vibrio anguillarum [4]; Vibrio anguillarum strain NA8347, 25-30 °C): 0.05 µg/mL (≈ 0.191 µM); MIC (Vibrio anguillarum [4]): 0.05 µg/mL (≈ 0.191 µM); MIC (Pasteurella piscicida [5]; read-out: MIC (minimum growth-inhibition concentration), Pasteurella piscicida strain EH8304, Mueller-Hinton agar, 25-30 °C): 0.1 µg/mL (≈ 0.383 µM); MIC (Pasteurella piscicida [5]; read-out: MIC (minimum growth-inhibition concentration), Pasteurella piscicida strain EH8309, Mueller-Hinton agar, 25-30 °C): 0.1 µg/mL (≈ 0.383 µM); MIC (Pasteurella piscicida [5]; read-out: MIC (minimum growth-inhibition concentration), Pasteurella piscicida strain EH8312, Mueller-Hinton agar, 25-30 °C): 0.1 µg/mL (≈ 0.383 µM); MIC (Pasteurella piscicida [5]; read-out: MIC (minimum growth-inhibition concentration), Pasteurella piscicida strain EH8313, Mueller-Hinton agar, 25-30 °C): 0.1 µg/mL (≈ 0.383 µM); MIC (Pasteurella piscicida [5]; read-out: MIC (minimum growth-inhibition concentration), Pasteurella piscicida strain NG8319, Mueller-Hinton agar, 25-30 °C): 0.1 µg/mL (≈ 0.383 µM); MIC (Aeromonas hydrophila [6]; read-out: MIC (minimum growth-inhibition concentration), Aeromonas hydrophila strain C 44, Mueller-Hinton agar, 25-30 °C): < 0.0125 µg/mL; MIC (Aeromonas hydrophila [6]; read-out: MIC (minimum growth-inhibition concentration), Aeromonas hydrophila strain KA8301, Mueller-Hinton agar, 25-30 °C): < 0.0125 µg/mL; MIC (Aeromonas hydrophila [6]; read-out: MIC (minimum growth-inhibition concentration), Aeromonas hydrophila strain KA8414, Mueller-Hinton agar, 25-30 °C): < 0.0125 µg/mL; MIC (Aeromonas hydrophila [6]; read-out: MIC (minimum growth-inhibition concentration), Aeromonas hydrophila strain KA8416, Mueller-Hinton agar, 25-30 °C): < 0.0125 µg/mL; MIC (Aeromonas hydrophila [6]; read-out: MIC (minimum growth-inhibition concentration), Aeromonas hydrophila strain M 183, Mueller-Hinton agar, 25-30 °C): < 0.0125 µg/mL
